Here are results for three molecules from patent publication US10029000B2, “Uses of IL-12 in hematopoiesis” (University of Southern California, priority 2003, dated 2018).

The test system of this test is lethally irradiated mice. The test can be described thus: Radioprotection assay: survival of mice after total body lethal irradiation. The format is in vivo, mice (C57BL/6J). As to conditions: cytokine given 1 hour post lethal dose radiation; for Survives: 4-5 mice per group. The procedure:
Mice received recombinant murine IL-12 (100 ng/mouse (which is about 5 ug/kg on average), intravenous injection) before (24 hours) or after (1 hour) lethal dose radiation (1000 rad). Mice in control group received equal volume of PBS buffer. Survival rate were analyzed by Kaplan-Meier method and p value was calculated using Log Rank Test.
To determine the minimum effective radioprotective dose of IL-12, different dose of IL-112 were administered to lethally irradiated animals before (24 hours before) or post (within one hour) lethal dose ionizing radiation.
IL-12 was administrated to mice at different doses 24 hours before radiation to determine if there is a dose dependent relationship between the concentration of IL-12 administration and survival from lethal irradiation.
To further explore the relationship of IL-12 hematopoietic rescue effect as it may relate to the time of administration, IL-12 was administrated to lethally irradiated animals at different time before and after the radiation. The following time points were tested: −48, −36, −24, and −12 hours before radiation, or +1, +12, +24, and +36 hours post radiation.
A study was conducted to determine if the radioprotective effect of IL-12 administration is specific and INF- ? independent. […] Also, an assessment was made to determine if there was a synergistic effect between GM-CSF and IL-12.
Mice were provided with acid water for one week before the radioprotection assay. Cytokines, diluted in phosphate buffered saline (PBS), pH 7.4, were intravenously injected into mice before or after total body lethal irradiation (TBI) at the specified times. Control group mice were injected with PBS buffer. For TBI, mice were either exposed twice to ionizing irradiation ( ? -ray from Cesium 137) at 500 rad dose with a 3 hour interval, or one time at a dose of 1000 rad in a Gammacell 40 machine from Atomic Energy of Canada LTD (Kanafa, Ontario, Canada). The ? -ray exposure rate is 1 Gy/min. […] After irradiation, mice were given water containing antibiotics. For the survival curve, the Kaplan-Meier method was used. Each experiment was repeated three or more times.

Consider “GM-CSF: a cytokine to stimulate G and M cell production”, for which the “Survival rate (%)” value worked out at 0%, the radioprotective effect entry was “did not show any radioprotective effect” and the Survives is recorded as 0.
Turning to “IL-18: cytokine that, like IL-12, can induce the release of interferon”, the “Survival rate (%)” value was found to be 0%, the radioprotective effect result is reported as “no radioprotective effect” and the Survives was 0.

B1: IL-23: a heterodimer (p19+p40), which shares the same subunit p40 with IL-12 (protein, UniProt Q9NPF7 20-189; P29460 23-328, looked up)
Interleukin-23 subunit alpha: RAVPGGSSPAWTQCQQLSQKLCTLAWSAHPLVGHMDLREEGDEETTNDVPHIQCGDGCDPQGLRDNSQFCLQRIHQGLIFYEKLLGSDIFTGEPSLLPDSPVGQLHASLLGLSQLLQPEGHHWETQQIPSLSPSQPWQRLLLRFKILRSLQAFVAVAARVFAHGAATLSP
Interleukin-12 subunit beta: IWELKKDVYVVELDWYPDAPGEMVVLTCDTPEEDGITWTLDQSSEVLGSGKTLTIQVKEFGDAGQYTCHKGGEVLSHSLLLLHKKEDGIWSTDILKDQKEPKNKTFLRCEAKNYSGRFTCWWLTTISTDLTFSVKSSRGSSDPQGVTCGAATLSAERVRGDNKEYEYSVECQEDSACPAAEESLPIEVMVDAVHKLKYENYTSSFFIRDIIKPDPPKNLQLKPLKNSRQVEVSWEYPDTWSTPHSYFSLTFCVQVQGKSKREKKDRVFTDKTSATVICRKNASISVRAQDRYYSSSWSEWASVPCS
Consider B1, for which the “Survival rate (%)” value is 0%, the radioprotective effect entry was “no radioprotective effect” and the Survives is 0.
